Measured values taken from patent publication US7132278B2, “PAS kinase” (Board of Regents, The University of Texas System, priority 2001, dated 2006).

Target: PASK (Homo sapiens, UniProt Q96RG2, F1266C/Y899H)
Conditions: read-out: Km for PASK; ATP as co-substrate
Experimental: One HTS assay kinase assay we employ is a robust and simple, non-radioactive chemiluminescent assay that measures the ability of the human enzyme to phosphorylate a biotinylated derivative of the AMARA peptide. The enzyme is expressed in baculovirus and purified by affinity and ion-exchange chromatography under routine conditions. Assay buffer is composed of 20 mM Tris-HC1, pH 7.5, 10 mM MgC12, 2 mM EGTA, 0.1% NP-40, 0.5 mM benzamidine, 1 mM NaF and 10 mM DTT. Enzyme is added to this buffer at a concentration determined to be in the linear range of activity (10 ng per microtiter plate well). For the most robust and sensitive kinase assay, we use an ATP concentration matching the Kmfor PASK (2.5 mM). After dispensing 80 ul of the enzyme/buffer mix per well in Costar 96-well microtiter plates (coated with Neutravidin at 0.5 mg/ml at room temperature for 2 hr), 10 μl of test compounds is added at a final concentration of 1 μM compound. Compounds are diluted in DMSO from master plates stored in DMSO at 10 mM. Following compound addition, the reactions are initiated by addition of 10 μl of biotinylated AMARA peptide and ATP such that the final concentration of substrate and ATP are 1 mM and 2.5 mM respectively. […] Reactions are developed by addition of 100 μl of Super Signal substrate (Pierce) and read colorimetrically using a Wallac Victor2, 1420 Multilabel Counter.

Chain of PASK (Q96RG2 whole entry Y899H/F1266C): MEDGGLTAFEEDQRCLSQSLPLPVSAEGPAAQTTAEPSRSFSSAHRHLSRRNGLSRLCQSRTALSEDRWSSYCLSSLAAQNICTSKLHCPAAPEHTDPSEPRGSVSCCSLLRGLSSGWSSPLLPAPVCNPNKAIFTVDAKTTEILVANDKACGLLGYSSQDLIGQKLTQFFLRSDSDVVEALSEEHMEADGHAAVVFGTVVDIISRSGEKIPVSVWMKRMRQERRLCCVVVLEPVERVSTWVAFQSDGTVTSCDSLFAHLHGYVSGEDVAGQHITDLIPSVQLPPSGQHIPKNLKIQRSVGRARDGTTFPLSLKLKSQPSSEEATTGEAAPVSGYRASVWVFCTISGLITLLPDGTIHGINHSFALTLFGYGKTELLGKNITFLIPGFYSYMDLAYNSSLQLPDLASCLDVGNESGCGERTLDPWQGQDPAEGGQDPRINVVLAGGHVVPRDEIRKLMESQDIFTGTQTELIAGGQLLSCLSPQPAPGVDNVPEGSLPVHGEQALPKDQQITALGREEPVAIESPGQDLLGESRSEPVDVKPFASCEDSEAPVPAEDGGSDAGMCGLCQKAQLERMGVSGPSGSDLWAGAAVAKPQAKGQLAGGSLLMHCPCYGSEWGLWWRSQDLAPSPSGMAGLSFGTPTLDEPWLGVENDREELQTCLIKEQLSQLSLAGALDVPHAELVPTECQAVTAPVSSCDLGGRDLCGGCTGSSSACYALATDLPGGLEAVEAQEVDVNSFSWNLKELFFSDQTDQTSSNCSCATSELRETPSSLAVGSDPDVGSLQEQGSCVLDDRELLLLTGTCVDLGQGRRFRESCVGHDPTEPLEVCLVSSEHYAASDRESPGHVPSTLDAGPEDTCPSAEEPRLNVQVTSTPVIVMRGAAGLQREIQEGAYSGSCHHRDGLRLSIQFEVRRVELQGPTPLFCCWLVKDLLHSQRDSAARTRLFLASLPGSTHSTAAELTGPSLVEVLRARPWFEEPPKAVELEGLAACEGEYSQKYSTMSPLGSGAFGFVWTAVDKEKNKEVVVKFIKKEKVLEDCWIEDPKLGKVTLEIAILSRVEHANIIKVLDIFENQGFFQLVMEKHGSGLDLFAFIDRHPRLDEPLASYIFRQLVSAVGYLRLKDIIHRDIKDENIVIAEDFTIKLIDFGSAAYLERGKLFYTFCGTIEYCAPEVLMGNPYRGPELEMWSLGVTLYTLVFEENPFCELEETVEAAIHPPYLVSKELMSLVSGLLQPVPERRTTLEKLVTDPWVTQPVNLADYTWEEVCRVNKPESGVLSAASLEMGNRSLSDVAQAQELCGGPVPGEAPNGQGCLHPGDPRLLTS

**Q.** Nc1ncnc2c1ncn2[C@@H]1O[C@H](COP(=O)(O)OP(=O)(O)OP(=O)(O)O)[C@@H](O)[C@H]1O [ATP] was tested. Which Km did it give?
**A.** The Km was 2.5 mM.
